Reference: patent US12724034B2, “Tryptophan optical probe, preparation method therefor and use thereof” (priority 2020, dated 2026)

What was measured:
[1] = target: tryptophan optical sensor (Streptococcus pneumoniae tryptophan-binding protein 31ft fusion) (Streptococcus pneumoniae, UniProt A0A0H2UPV6); test: Highest response of the tryptophan optical sensor provided in this application; format: biochemical
[2] = target: T1, Streptococcus pneumoniae tryptophan-binding protein 31ft (SEQ ID NO: 1) with cpYFP inserted at 263/268, optical sensor 31ft-263/268-cpYFP, SEQ ID NO: 9 (Streptococcus pneumoniae, UniProt A0A0H2UPV6, DELINS312-315[…]); test: Titration and specificity detection, purified sensor 31ft-263/268-cpYFP; conditions: 420/485 fluorescence ratio, concentration gradient tryptophan
T1 construct: His-tag; E. coli JM109(DE3), nickel-purified
Protocol: (§1) 3. The centrifuged supernatant was purified by a self-packed nickel-column affinity chromatography column to obtain the protein, and the protein after nickel-column affinity chromatography was then passed through a self-packed desalting column to obtain the protein dissolved in 100 mM HEPES buffer (pH 7.4).

[3] = target: T2, Streptococcus pneumoniae tryptophan-binding protein 31ft with cpYFP inserted at 263/266, mutant T259F, optical sensor 31ft-263/266-cpYFP-T259F, SEQ ID NO: 31 (Streptococcus pneumoniae, UniProt A0A0H2UPV6, DELINS312-313[…]/T307F); test: Fluorescence spectra and tryptophan response of purified 31ft-263/266-cpYFP-T259F; format: biochemical
T2 construct: His-tag; E. coli, purified
Protocol: 6. […] The determination of the absorption spectrum and fluorescence spectrum of the sample is completed by a spectrophotometer and a fluorescence spectrophotometer.
Detection of fluorescence spectra was performed using a fluorescence spectrophotometer after subjecting purified tryptophan optical sensor 31ft-263/266-cpYFP-T259F to 0 mM and 1 mM tryptophan treatments for 10 min, respectively.
Determination of emission spectra: excitation spectra were recorded with an fixed excitation wavelength of 420 nm and 485 nm and an emission range of 470-600 nm and 490-600 nm, read every 5 nm.

[4] = target: T3, Streptococcus pneumoniae tryptophan-binding protein 31ft (SEQ ID NO: 1) with cpYFP inserted at 263/267, SEQ ID NO: 8 (Streptococcus pneumoniae, UniProt A0A0H2UPV6, DELINS312-314[…]); test: Tryptophan response screening, disrupted supernatant, cpYFP 263/267; format: biochemical; conditions: 1 mM tryptophan, disrupted supernatant of E. coli
T3 construct: His-tag; E. coli JM109(DE3), disrupted supernatant
Protocol: (§2) Tryptophan response screening was performed with disrupted supernatants of E. coli expressing the 31ft-cpYFP fusion protein, and the detection signal of the fusion fluorescent protein containing 1 mM tryptophan was divided by the detection signal of the fusion fluorescent protein without tryptophan.

HeLa cells = test: Dynamic monitoring of tryptophan transmembrane transport in HeLa cells expressing the optical sensor in the cytosol; format: cell-based; conditions: 1 mM tryptophan, 30 min, HBSS
Protocol: 1. The pCDNA3.1+-based tryptophan optical sensor plasmid was transfected into HeLa by the transfection reagent Lipofectamine2000 (Invitrogen), and cultured in a cell incubator at 37° C., 5% CO2. Fluorescence detection was performed 24-36 h after the exogenous gene was fully expressed.
2. After induction of expression, adherent HeLa cells were washed three times with PBS and placed in HMS solution for fluorescence microscopy and microplate reader assays, respectively.
Add 1 mM tryptophan and continue the assay for 30 minutes.

[5] = tested on: Streptococcus pneumoniae 31ft-cpYFP optical sensor mutants L84F, F202W, K214F, K214W, Y217F, Y217W, K255F, K255W, T259F, T259W, I283F and I283W; test: Fluorescence detection of purified mutated cpYFP optical sensors; format: biochemical; conditions: purified proteins; FIG. 8
Protocol: The plasmids pCDF-31ft-263/265-cpYFP, pCDF-31ft-263/266-cpYFP, pCDF-31ft-263/267-cpYFP were linearized by PCR with the primers containing the base sequence of the desired mutation site.
Phosphorus was added to the obtained PCR products under the action of PNK, T4 DNA ligase and PEG4000, thereby obtaining mutant plasmids of 15 sites of H13, T71, L84, D93, K105, N117, T130, V170, V192, F202, K214, Y217, K255, T259, 1283, and the sequencing was completed by Jie Li Sequencing Company. An exemplary nucleic acid sequence is set forth in SEQ ID NO:40 (263/266-T259F).

[6] = target: T4, Streptococcus pneumoniae tryptophan-binding protein 31ft (SEQ ID NO: 1) with cpGFP (SEQ ID NO: 3) inserted at 263/265 (Streptococcus pneumoniae, UniProt A0A0H2UPV6, DEL312-312); test: Tryptophan response screening, disrupted supernatant, cpGFP 263/265; format: biochemical; conditions: method of Example 2 (1 mM tryptophan)
T4 construct: E. coli disrupted supernatant
Protocol: as §2
(§3) According to the method in Example 2, cpYFP was replaced with cpGFP to construct a tryptophan green fluorescent protein fluorescent sensor.

[7] = target: T5, Streptococcus pneumoniae tryptophan-binding protein 31ft (SEQ ID NO: 1) with cpGFP (SEQ ID NO: 3) inserted at 263/266 (Streptococcus pneumoniae, UniProt A0A0H2UPV6, DEL312-313); test: Tryptophan response screening, disrupted supernatant, cpGFP 263/266; format: biochemical; conditions: method of Example 2 (1 mM tryptophan)
T5 construct: E. coli disrupted supernatant
Protocol: as §2, §3

[8] = target: T6, Streptococcus pneumoniae tryptophan-binding protein 31ft (SEQ ID NO: 1) with cpYFP inserted at 263/266, optical sensor 31ft-263/266-cpYFP, SEQ ID NO: 7 (Streptococcus pneumoniae, UniProt A0A0H2UPV6, DELINS312-313[…]); conditions: for response to amino acid (specific detection): specificity, FIG. 7
T6 construct: His-tag; E. coli JM109(DE3), nickel-purified
Protocol: as §1

[9] = target: T7, Streptococcus pneumoniae tryptophan-binding protein 31ft (SEQ ID NO: 1) with cpYFP inserted at 263/265, optical sensor 31ft-263/265-cpYFP, SEQ ID NO: 6 (Streptococcus pneumoniae, UniProt A0A0H2UPV6, DELINS312-312[…]); conditions: for response to amino acid (specific detection): specificity, FIG. 7
T7 construct: His-tag; pCDF, E. coli JM109(DE3), nickel-column purified
Protocol: as §1

[10] = target: T8, Streptococcus pneumoniae tryptophan-binding protein 31ft (SEQ ID NO: 1) with cpGFP (SEQ ID NO: 3) inserted at 263/267 (Streptococcus pneumoniae, UniProt A0A0H2UPV6, DEL312-314); test: Tryptophan response screening, disrupted supernatant, cpGFP 263/267; format: biochemical; conditions: method of Example 2 (1 mM tryptophan)
T8 construct: E. coli disrupted supernatant
Protocol: as §2, §3

[11] = target: T9, Streptococcus pneumoniae tryptophan-binding protein 31ft (SEQ ID NO: 1) with cpYFP inserted at 263/267, optical sensor 31ft-263/267-cpYFP, SEQ ID NO: 8 (Streptococcus pneumoniae, UniProt A0A0H2UPV6, DELINS312-314[…]); test: Titration and specificity detection, purified sensor 31ft-263/267-cpYFP; conditions: 420/485 fluorescence ratio, concentration gradient tryptophan
T9 construct: His-tag; E. coli JM109(DE3), nickel-purified
Protocol: as §1

[12] = target: T10, Streptococcus pneumoniae tryptophan-binding protein 31ft (SEQ ID NO: 1) with cpGFP (SEQ ID NO: 3) inserted at 263/268 (Streptococcus pneumoniae, UniProt A0A0H2UPV6, DEL312-315); test: Tryptophan response screening, disrupted supernatant, cpGFP 263/268; format: biochemical; conditions: method of Example 2 (1 mM tryptophan)
T10 construct: E. coli disrupted supernatant
Protocol: as §2, §3

[13] = target: T11, Streptococcus pneumoniae tryptophan-binding protein 31ft (SEQ ID NO: 1) with cpYFP inserted at 263/268, SEQ ID NO: 9 (Streptococcus pneumoniae, UniProt A0A0H2UPV6, DELINS312-315[…]); test: Tryptophan response screening, disrupted supernatant, cpYFP 263/268; format: biochemical; conditions: 1 mM tryptophan, disrupted supernatant of E. coli
T11 construct: His-tag; E. coli JM109(DE3), disrupted supernatant
Protocol: as §2

[14] = target: T12, Streptococcus pneumoniae tryptophan-binding protein 31ft (SEQ ID NO: 1) with cpYFP inserted at 263/265, SEQ ID NO: 6 (Streptococcus pneumoniae, UniProt A0A0H2UPV6, DELINS312-312[…]); test: Tryptophan response screening, disrupted supernatant, cpYFP 263/265; format: biochemical; conditions: 1 mM tryptophan, disrupted supernatant of E. coli
T12 construct: His-tag; pCDF, E. coli JM109(DE3) disrupted supernatant
Protocol: as §2

[15] = target: T13, Streptococcus pneumoniae tryptophan-binding protein 31ft (SEQ ID NO: 1) with cpYFP inserted at 263/266, SEQ ID NO: 7 (Streptococcus pneumoniae, UniProt A0A0H2UPV6, DELINS312-313[…]); test: Tryptophan response screening, disrupted supernatant, cpYFP 263/266; format: biochemical; conditions: 1 mM tryptophan, disrupted supernatant of E. coli
T13 construct: His-tag; E. coli JM109(DE3), disrupted supernatant
Protocol: as §2

[16] = 420/485 fluorescence ratio, concentration gradient tryptophan

SMILES	highest response to tryptophan, increase of the control [1]	change amplitude [2] [times]	decrease in fluorescence intensity under excitation at 460 nm, compared to 0 mM tryptophan ([3]; 1 mM tryptophan, 10 min) [fold]	fluorescence intensity excited at 420 nm, relative to 0 mM tryptophan ([3]; 1 mM tryptophan, 10 min) [times]	response to tryptophan ([3]; purified protein)	response to tryptophan (signal with / without tryptophan) [4]	highest 485/420 ratio relative to the initial value (HeLa cells) [times]	response to tryptophan [5]	response to tryptophan [6]	response to tryptophan [7]	change amplitude [8, 16] [times]	change amplitude [9, 16] [times]	response to tryptophan [10]	change amplitude [11] [times]	response to tryptophan [12]	response to tryptophan (signal with / without tryptophan) [13]	response to tryptophan (signal with / without tryptophan) [14]	response to tryptophan (signal with / without tryptophan) [15]	response to amino acid (specific detection) [8] [times]	response to amino acid (specific detection) [9] [times]
N[C@@H](Cc1c[nH]c2ccccc12)C(=O)O [tryptophan, L-tryptophan]	more than 9 fold	3.0	0.26	1.1	more than 2.5 fold	more than 1.5 times	1.3	more than 2.5 times	more than 1.5 times	more than 1.5 times	5.3	4.2	more than 1.5 times	3.3	more than 1.5 times	more than 1.5 times	more than 1.5 times	more than 1.5 times	–	–
N[C@@H](Cc1ccccc1)C(=O)O [phenylalanine]	–	–	–	–	–	–	–	–	–	–	–	–	–	–	–	–	–	–	1.34	1.37
N[C@@H](Cc1ccc(O)cc1)C(=O)O [tyrosine]	–	–	–	–	–	–	–	–	–	–	–	–	–	–	–	–	–	–	1.26	1.25
